This note sets out measurements from patent US20230310445A1, “LOX ENZYME INHIBITING METHODS AND COMPOSITIONS” (ANOVIA BIOSCIENCES, INC., priority 2020, published 2023).

In the experiment the target is T1, Recombinant human LOXL3 (lysyl oxidase like 3) (Homo sapiens, UniProt P58215).
T1 construct: purchased R&D systems
T1 sequence (P58215 26-753): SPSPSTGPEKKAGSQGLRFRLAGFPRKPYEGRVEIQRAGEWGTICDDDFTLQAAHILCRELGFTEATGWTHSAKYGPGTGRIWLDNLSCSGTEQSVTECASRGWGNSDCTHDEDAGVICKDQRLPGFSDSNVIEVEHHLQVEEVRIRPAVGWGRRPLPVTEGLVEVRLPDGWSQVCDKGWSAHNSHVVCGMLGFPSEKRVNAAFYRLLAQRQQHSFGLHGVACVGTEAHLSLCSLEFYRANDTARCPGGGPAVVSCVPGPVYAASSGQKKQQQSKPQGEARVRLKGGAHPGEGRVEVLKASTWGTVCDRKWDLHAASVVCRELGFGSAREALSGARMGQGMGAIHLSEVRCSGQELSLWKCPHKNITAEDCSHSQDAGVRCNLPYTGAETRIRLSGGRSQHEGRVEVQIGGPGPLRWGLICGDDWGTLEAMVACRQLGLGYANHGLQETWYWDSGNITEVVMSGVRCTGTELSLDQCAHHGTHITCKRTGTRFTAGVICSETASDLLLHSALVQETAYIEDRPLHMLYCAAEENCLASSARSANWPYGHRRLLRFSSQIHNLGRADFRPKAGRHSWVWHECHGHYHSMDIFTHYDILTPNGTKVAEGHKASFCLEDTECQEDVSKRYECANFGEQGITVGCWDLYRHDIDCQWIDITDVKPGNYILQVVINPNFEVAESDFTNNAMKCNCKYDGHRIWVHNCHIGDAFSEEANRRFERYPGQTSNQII
The experiment is described as follows: LOXL3 inhibition assay (fluorometric, cadaverine/Amplex Red/HRP). The class given is biochemical. To be noted: IC50 class; recombinant human LOXL3, cadaverine substrate; read-out: Activity Range LOXL3. As to the method:
The ability of compounds to inhibit one or more of the lysyl oxidases LOXL2 and/or LOXL3 was determined using a fluorometric assay. This assay measures the activity of lysyl oxidases by coupling the reaction with horseradish peroxidase-catalyzed […]. The activity assay protocol uses cadaverine as substrate that releases hydrogen peroxide upon transformation by the specific LOX family enzyme present in the sample. Hydrogen peroxide is in turn detected using a red fluorescence substrate for HRP-coupled reactions (Amplex Red Enzyme Assays, Thermo Scientific Fisher). This leads to increase in fluorescence that can be easily detected at Ex/Em=540/590 nm in a fluorescence microplate reader.
Enzymes: Recombinant human LOXL2 (lysyl oxidase like 2) and recombinant human LOXL3 (lysyl oxidase like 3) were purchased from R&D systems and assays were performed in 1.2 M urea, 50 mM sodium borate buffer pH 8.0, and 10 mM CaCl.
Reaction: Final concentration in the LOXL2 and LOXL3 assays were as following and performed in a total volume of […]:
Experimental procedure: 5 μl of freshly prepared reaction buffer were delivered to reaction wells. Compounds were resuspended in 100% DMSO at 10 mM and delivered into buffer using acoustic technology (Echo550; nanoliter range). A 3× solution of LOXL2 or LOXL3 in reaction buffer was prepared (“enzyme solution”) and 5 μL of enzyme solution was added into the reaction wells. Buffer only was added to column 1 for no protein control. Reactions were incubated for 30 minutes at 37° C. A 3×mixture of cadaverine, Amplex Red, and HRP (“Substrate/Detection Mix) was prepared and subsequently 5 μL of the mixture added to each reaction well. Progress of reactions was monitored for 60 minutes at 37° C. using Clariostar plate reader (ex 530-12, ems 600-40). For all activity assays, pan-LOX inhibitor CCT365623 (Tang et al, 2017) and LOXL2/LOXL3 inhibitor PAT-1251 (PharmaKea) were included as standards.
Data analysis: Slope of the linear portion of the progress curve was calculated using Clariostar software. Typical analysis interval was between 8-30 min, but varied between experiments. The background subtracted signals (No protein wells are considered as background) were converted to % activity relative to DMSO controls. Data was analyzed using GraphPad Prism 4 with “sigmoidal dose-response (variable slope)”; 4 parameters with Hill Slope. Constraints: Bottom=Constant equal to 0. Top=Must be less than 120.
For `CN(C)C(=O)N1C[C@@H](c2ccccc2)C[C@@H](S(=O)(=O)c2cccc(CN)c2)C1.O=C(O)C(F)(F)F` (racemic) [Example 74, cis-3-((3-(Aminomethyl)phenyl)sulfonyl)-N,N-dimethyl-5-phenylpiperidine-1-carboxamide 2,2,2-trifluoroacetate], the IC50 was in the range of 1000 to 30000 nM.

With `NCc1ccnc(S(=O)(=O)N2C[C@@H](C(=O)N3CCOCC3)C[C@@H](c3ccccc3)C2)c1` [Example 133A, ((3S,5S)-1-((4-(aminomethyl)pyridin-2-yl)sulfonyl)-5-phenylpiperidin-3-yl)(morpholino)methanone 2,2,2-trifluoroacetate], the IC50 fell in the range of 500 to 1000 nM.

Take `NCc1ccnc(S(=O)(=O)N2C[C@@H](C(=O)N3CCOCC3)C[C@@H](c3ccccc3)C2)c1` (relative stereo) [Example 133, cis-(1-((4-(Aminomethyl)pyridin-2-yl)sulfonyl)-5-phenylpiperidin-3-yl)(morpholino)methanone 2,2,2-trifluoroacetate]: the IC50 is at most 500 nM.

For `CN(C)C(=O)[C@H]1C[C@@H](C2CCCCC2)CN(S(=O)(=O)c2cc(CN)ccn2)C1` (racemic) [Example 144, cis-1-((4-(Aminomethyl)pyridin-2-yl)sulfonyl)-5-cyclohexyl-N,N-dimethylpiperidine-3-carboxamide 2,2,2-trifluoroacetate], the IC50 was at most 500 nM.

Turning to `CS(=O)(=O)[C@@H]1C[C@@H](S(=O)(=O)c2cccc(CN)c2)CN(c2ccccc2)C1` (racemic) [Example 79, trans-(3-((-5-(Methylsulfonyl)-1-phenylpiperidin-3-yl)sulfonyl)phenyl)methanamine], the IC50 was 1000 to 30000 nM.

On to `NCc1cccc(S(=O)(=O)N2C[C@@H](C(=O)N3CCOCC3)C[C@@H](C3CCCCC3)C2)c1` (racemic) [Example 139, cis-(1-((3-(Aminomethyl)phenyl)sulfonyl)-5-cyclohexylpiperidin-3-yl)(morpholino)methanone], for which the IC50 lay within 1000 to 30000 nM.

As for `NCc1cccc(S(=O)(=O)N2C[C@H](C(=O)N3CCS(=O)(=O)CC3)C[C@@H](c3ccccc3)C2)n1` (racemic) [Example 115T, trans-(1-((6-(Aminomethyl)pyridin-2-yl)sulfonyl)-5-phenylpiperidin-3-yl)(1,1-dioxidothiomorpholino)methanone 2,2,2-trifluoroacetate], the IC50 was above 30000 nM.

With `NCc1ccnc(S(=O)(=O)N2C[C@@H](C(=O)N3CCS(=O)(=O)CC3)C[C@@H](c3ccccc3)C2)c1` (racemic) [Example 134, cis-(1-((4-(Aminomethyl)pyridin-2-yl)sulfonyl)-5-phenylpiperidin-3-yl)(1,1-dioxidothiomorpholino)methanone 2,2,2-trifluoroacetate], the IC50 was at most 500 nM.

In the case of `NCc1cccc(S(=O)(=O)N2C[C@@H](C(=O)N3CCS(=O)(=O)CC3)C[C@@H](C3CCCCC3)C2)c1` (racemic) [Example 140, cis-(1-((3-(Aminomethyl)phenyl)sulfonyl)-5-cyclohexylpiperidin-3-yl)(1,1-dioxidothiomorpholino)methanone], the IC50 fell in the range of 1000 to 30000 nM.

In the case of `CS(=O)(=O)[C@H]1C[C@@H](S(=O)(=O)c2cccc(CN)c2)CN(c2ccccc2)C1` (racemic) [Example 23, cis-(3-((-5-(Methylsulfonyl)-1-phenylpiperidin-3-yl)sulfonyl)phenyl)methanamine], the IC50 lay in the range of 1000 to 30000 nM.

On to `CN(C)C(=O)[C@H]1C[C@@H](C2CCCCC2)CN(S(=O)(=O)c2cccc(CN)c2)C1` (relative stereo) [Example 138, cis-1-((3-(Aminomethyl)phenyl)sulfonyl)-5-cyclohexyl-N,N-dimethylpiperidine-3-carboxamide 2,2,2-trifluoroacetate], for which the IC50 lay in the range of 1000 to 30000 nM.

Take `NCc1ccnc(S(=O)(=O)N2C[C@@H](C(=O)N3CCS(=O)(=O)CC3)C[C@@H](C3CCCCC3)C2)c1.O=C(O)C(F)(F)F` (racemic) [Example 146, cis-(1-((4-(Aminomethyl)pyridin-2-yl)sulfonyl)-5-cyclohexylpiperidin-3-yl)(1,1-dioxidothiomorpholino)methanone 2,2,2-trifluoroacetate]: the IC50 was at most 500 nM.

With `CS(=O)(=O)[C@H]1C[C@@H](S(=O)(=O)c2cccc(CN)c2)CN(c2ccccc2F)C1` (racemic) [Example 92, cis-(3-((-1-(2-Fluorophenyl)-5-(methylsulfonyl)piperidin-3-yl)sulfonyl)phenyl)methanamine 2,2,2-trifluoroacetate], the IC50 fell in the range of 1000 to 30000 nM.

Take `NCc1ccnc(S(=O)(=O)N2C[C@@H](C(=O)N3CCOCC3)C[C@@H](C3CCCCC3)C2)c1` (racemic) [Example 145, cis-(1-((4-(Aminomethyl)pyridin-2-yl)sulfonyl)-5-cyclohexylpiperidin-3-yl)(morpholino)methanone 2,2,2-trifluoroacetate]: the IC50 is 500 to 1000 nM.

`CS(=O)(=O)N1C[C@H](Oc2cccc(CN)c2)C[C@H](c2ccccc2F)C1` (racemic) [Example 70, cis-(3-((5-(2-Fluorophenyl)-1-(methylsulfonyl)piperidin-3-yl)oxy)phenyl)methanamine 2,2,2-trifluoroacetate]: the IC50 fell in the range of 1000 to 30000 nM.

In the case of `NCc1ccnc(S(=O)(=O)N2C[C@H](C(=O)N3CCOCC3)C[C@H](c3ccccc3)C2)c1` [Example 133B, ((3R,5R)-1-((4-(aminomethyl)pyridin-2-yl)sulfonyl)-5-phenylpiperidin-3-yl)(morpholino)methanone 2,2,2-trifluoroacetate], the IC50 is at most 500 nM.

On to `NCc1cccc(S(=O)(=O)N2C[C@H](C(=O)N3CCS(=O)(=O)CC3)C[C@@H](c3ccccc3)C2)c1` (racemic) [Example 85, trans-(1-((3-(Aminomethyl)phenyl)sulfonyl)-5-phenylpiperidin-3-yl)(1,1-dioxidothiomorpholino)methanone 2,2,2-trifluoroacetate], for which the IC50 lay within 1000 to 30000 nM.
